Measured values published in PubChem BioAssay AID1259375 (The Scripps Research Institute Molecular Screening Center, 2018).
Activity calls are given as the source filed them. The rule behind the calls is not given here.

Molecular target: Microphthalmia-associated transcription factor (Homo sapiens) (UniProt O75030)
Assay: MITF inhibitors by FRET titration, dose response, biochemical, high throughput (AID 1259375);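 note: FRET between CFP-tagged and YFP-tagged MITF protein partners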
Conditions: FRET biochemical assay, MITF inhibition

Microphthalmia-associated transcription factor (Homo sapiens), sequence (O75030 whole entry, looked up): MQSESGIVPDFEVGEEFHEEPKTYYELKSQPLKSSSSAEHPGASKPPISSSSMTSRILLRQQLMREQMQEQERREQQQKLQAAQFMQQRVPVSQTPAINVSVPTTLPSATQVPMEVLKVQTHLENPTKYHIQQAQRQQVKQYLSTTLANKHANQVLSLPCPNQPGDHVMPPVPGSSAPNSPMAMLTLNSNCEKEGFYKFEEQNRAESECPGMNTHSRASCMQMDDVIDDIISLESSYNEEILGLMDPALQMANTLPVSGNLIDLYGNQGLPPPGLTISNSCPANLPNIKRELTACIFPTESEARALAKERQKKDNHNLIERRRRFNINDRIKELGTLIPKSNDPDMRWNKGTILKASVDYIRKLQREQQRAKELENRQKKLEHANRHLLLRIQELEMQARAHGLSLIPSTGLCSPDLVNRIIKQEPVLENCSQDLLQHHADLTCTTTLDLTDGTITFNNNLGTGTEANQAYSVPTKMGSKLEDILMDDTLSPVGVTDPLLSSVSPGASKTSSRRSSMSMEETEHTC

Row | SMILES | IC50
1 | COC(=O)CSc1nnc(-c2ccco2)n1Cc1ccco1 | > 6.48 µM (inactive)
2 | Cc1ccc(C)n1C(Cc1c[nH]c2ccccc12)C(=O)O (centres undefined) | > 6.48 µM (inactive)
3 | O=C1N[C@@H](Cc2ccc(O)cc2)C(=O)N2CCN(C(=O)NC3CCCCC3)C[C@H]12 | > 6.48 µM (inactive)
4 | CCC[C@@H]1NC(=O)[C@H]2CN(C(=O)NCc3ccccc3)CCN2C1=O | > 6.48 µM (inactive)
5 | O=P(O)(O)C(Sc1ccc(Cl)cc1)P(=O)(O)O | > 6.48 µM (inactive)
6 | O=C(Nc1ccc(Cl)cc1Cl)N1CCN2C(=O)[C@@H]3CSCN3C(=O)[C@H]2C1 | > 6.48 µM (inactive)
7 | CN(C)CCS(=O)c1cc(-c2cn[nH]c2)ccc1NC(=O)[C@@H]1Cc2cc(F)ccc2CN1 (some centres undefined) | > 6.48 µM (inactive)
8 | COC(=O)c1c(NC(=O)c2ccc([N+](=O)[O-])o2)sc(Cc2ccc3c(c2)OCO3)c1C | > 6.42 µM (inactive)
9 | O=C1N[C@H](Cc2ccccc2)C(=O)N2CCN(C(=O)NCc3ccccc3)C[C@H]12 | > 6.48 µM (inactive)
10 | COCCCNC(=O)/C(C#N)=C/c1ccc(OCC(=O)O)c(OC)c1 | > 6.48 µM (inactive)
11 | Cc1ccc(NC(=O)COC(=O)CCC(=O)Nc2sc3c(c2C(N)=O)CCC3)cc1F | > 6.95 µM (inactive)
12 | Cc1cc(N=Cc2ccc([N+](=O)[O-])o2)ccc1S(=O)(=O)O | > 6.48 µM (inactive)
13 | N#CC1=C(N)n2c(s/c(=C\c3ccco3)c2=O)=C(C#N)C1c1ccco1 (centres undefined) | > 6.53 µM (inactive)
14 | CC1CCC(N2CCN(Cc3ccco3)CC2)CC1 (centres undefined) | > 6.25 µM (inactive)
15 | O=C(NCC(O)C(=O)N1CCOCC1)c1cccc(Nc2ccc3[nH]ncc3c2)n1 (centres undefined) | > 6.48 µM (inactive)
16 | Oc1ccc2c(c1)C1CCCC1(N1CCOCC1)O2 (centres undefined) | > 6.48 µM (inactive)
17 | O=C1O[C@H](C(O)CO)C(O)=C1O (some centres undefined) | > 6.48 µM (inactive)
18 | COc1ccc(C)cc1NS(=O)(=O)c1ccc2c(c1)CCC(=O)N2 | > 6.48 µM (inactive)
19 | O=C(Nc1ccc(N2CCOCC2)cc1)c1ccnc(Nc2ncccn2)c1 | > 7.06 µM (inactive)
20 | NC(=O)COC(=O)c1cc2c(s1)CCC2 | > 6.91 µM (inactive)
21 | CN(C)c1cc(NC(=O)CNC(C)(C)C)c(O)c2c1C[C@H]1C[C@H]3[C@@H](N(C)C)C(=O)C(C(N)=O)=C(O)[C@@]3(O)C(=O)C1=C2O | > 6.48 µM (inactive)
22 | Cc1sc2nc(C)n3c(=O)n(CC(=O)NCc4ccco4)nc3c2c1C | > 6.48 µM (inactive)
23 | CC[C@@H]1NC(=O)[C@H]2CN(C(=O)NCc3ccccc3)CCN2C1=O | > 6.48 µM (inactive)
24 | Cc1oc(C(=O)O)cc1CSCCSCc1cc(C(=O)O)oc1C | > 6.48 µM (inactive)

Row | SMILES | IC50
25 | CCOC(=O)C1C2NC(=S)N(c3ccc(CC)cc3)C1(C)Oc1c(OCC)cccc12 (centres undefined) | > 5.53 µM (inactive)
26 | CN(C)c1ccc(O)c2c1C[C@H]1C[C@H]3[C@H](N(C)C)C(=O)C(C(N)=O)=C(O)[C@@]3(O)C(=O)C1=C2O | 3.08 µM
27 | O=C1Nc2c(C(=O)O)cccc2C1=O | > 7.92 µM (inactive)
28 | Cc1cc(NC(=O)C2CCN(C(=O)c3ccc(-n4cccc4)cc3)CC2)no1 | > 6.48 µM (inactive)
29 | COc1ccc2c(c1)CC(c1nc(Nc3ccc4cnccc4c3)c3ccccc3n1)CO2 (centres undefined) | > 6.48 µM (inactive)
30 | O=c1[nH]cnc2nc(-c3ccco3)c(-c3ccco3)nc12 | > 7.63 µM (inactive)
31 | CN1CCN(C(=O)c2ccc(-c3nc(Nc4ccccc4)c4ncn(C5CCCCC5)c4n3)cc2)CC1 | > 7.63 µM (inactive)
32 | COc1c(O)cc(O)cc1O | > 6.48 µM (inactive)
33 | CC(C)[C@@H]1NC(=O)[C@H]2CN(C(=O)NCc3ccccc3)CCN2C1=O | > 6.48 µM (inactive)
34 | Cc1ccc(CCC(=O)Nc2ccc(-c3cn4c5c(nnc4n3)CCCC5)cc2)o1 | > 6.48 µM (inactive)
35 | Cc1ncn(-c2ccc(N(C)c3ncc4cccc(-c5ccn[nH]5)c4n3)cc2)n1 | > 6.48 µM (inactive)
36 | CCN(CC)CC(=O)Nc1ccc(OC)cc1 | > 6.48 µM (inactive)
37 | C[C@@H]1NC(=O)[C@H]2CN(C(=O)NC3CCCCC3)CCN2C1=O | > 6.48 µM (inactive)
38 | Cc1ccc(/C=C/C(=O)NCc2ccccn2)o1 | > 6.48 µM (inactive)
39 | C[C@H](O)[C@H]1NC(=O)[C@H]2CN(C(=O)NCc3ccccc3)CCN2C1=O | > 6.48 µM (inactive)
40 | COc1nccnc1NS(=O)(=O)c1ccc(NC(=O)c2ccc([N+](=O)[O-])c(C)c2)cc1 | > 6.48 µM (inactive)
41 | COc1ccc(OC)c(CN2CCN(Cc3ccc(F)cc3)CC2)c1 | > 6.11 µM (inactive)
42 | Cc1cc2ncn(Cc3noc(-c4ccco4)n3)c2cc1C | > 6.48 µM (inactive)
43 | NC1(C(Cl)(Cl)Cl)Oc2ccccc2O1 | > 6.48 µM (inactive)
44 | CC(C)C[C@H]1NC(=O)[C@H]2CN(C(=O)NC3CCCCC3)CCN2C1=O | > 6.48 µM (inactive)
45 | c1ccc2c(c1)ncn2CC1CCN(Cc2cn3ccccc3n2)CC1 | > 6.48 µM (inactive)
46 | O=C(c1ccncc1)N1CCN(Cc2ccccc2[N+](=O)[O-])CC1 | > 6.13 µM (inactive)
47 | O=C1NC(=O)/C(=C\c2ccc(O)cc2O)S1 | > 6.48 µM (inactive)
48 | Cc1cc(C)n2nc(N)c(N)c2n1 | > 11.6 µM (inactive)

Row | SMILES | IC50
49 | N=C1S/C(=C\c2ccco2)C(=O)N1c1nonc1N | 3.61 µM
50 | CC(C)[C@@H]1NC(=O)[C@H]2CN(C(=O)NC3CCCCC3)CCN2C1=O | > 6.48 µM (inactive)
51 | CCCCNCCOc1ccccc1OCC | > 6.48 µM (inactive)
52 | COc1cccc(CN2CCC(CNc3ccc(-c4ccncc4)cc3)C2)c1 (centres undefined) | > 6.48 µM (inactive)
53 | COc1ccc2c(c1)CC(C(=O)Nc1ccc(-c3cn[nH]c3)cc1OCC#N)CO2 (centres undefined) | > 6.48 µM (inactive)
54 | NC(=O)c1cncc(-c2cccs2)c1 | > 6.5 µM (inactive)
55 | Cn1nnc(-c2ccc(Nc3nccc(-c4ccc5nc(C6CC6)[nH]c(=O)c5c4)n3)cc2)n1 | > 6.48 µM (inactive)
56 | CCC(C)C(=O)NCc1nnc2n1CCN(C/C=C/c1ccco1)CC2 (centres undefined) | > 6.48 µM (inactive)
57 | Brc1c(OCCN2CCNCC2)ccc2ccccc12 | > 6.48 µM (inactive)
58 | C[C@@H](OCc1ccccc1)[C@@H]1NC(=O)[C@H]2CN(C(=O)NC3CCCCC3)CCN2C1=O | > 6.48 µM (inactive)
59 | Clc1ccc(CN2CCN(Cc3c[nH]c4ccccc34)CC2)cc1 | > 5.86 µM (inactive)
60 | O=C1N[C@H](Cc2ccc(O)cc2)C(=O)N2CCN(C(=O)NC3CCCCC3)C[C@H]12 | > 6.48 µM (inactive)
61 | CCOC(=O)C1C2NC(=S)N(c3ccccc3)C1(C)Oc1cc(OC)ccc12 (centres undefined) | > 6.4 µM (inactive)
62 | N#C/C(=C/c1ccco1)c1cccc(F)c1 | > 6.48 µM (inactive)
63 | Cn1c(SCc2cc(=O)n3c(n2)sc2ccccc23)nnc1C(F)(F)F | > 7.18 µM (inactive)
64 | Cc1cncc2c(S(=O)(=O)N3CC[C@@H](NC(=O)C(O)c4ccc(F)cc4F)C3)cccc12 (some centres undefined) | > 6.48 µM (inactive)
65 | O=C(O)c1cc(-c2ccco2)nc2ccccc12 | > 7.59 µM (inactive)
66 | O=C(Nc1ccc(N2CCOCC2)cc1)c1cccc(Nc2ccncn2)n1 | > 7.56 µM (inactive)
67 | CCS(=O)(=O)NCC(c1cccs1)S(=O)(=O)c1ccc(C)cc1 (centres undefined) | > 6.6 µM (inactive)
68 | CC(=O)CC1=C(C(=O)O)N2C(=O)C(N)C2SC1 (centres undefined) | > 6.48 µM (inactive)
69 | CCOC(=O)Cc1[nH]nc2c1C1(C(=O)N(CC)c3ccccc31)C(C#N)=C(N)O2 (centres undefined) | > 6.48 µM (inactive)
70 | O=C(NCc1ccccc1)N1CCN2C(=O)[C@@H]3CSCN3C(=O)[C@H]2C1 | > 6.48 µM (inactive)
71 | CCN(CC)c1ccc(C(c2c(C)[nH][nH]c2=O)c2c(C)[nH][nH]c2=O)cc1 | 2.94 µM
72 | CC(C)N(C(=O)COC(=O)c1cc(-c2ccco2)nc2ccccc12)C(C)C | > 6.82 µM (inactive)

Row | SMILES | IC50
73 | O=C(O)c1ccc(O)c(C=Nc2ccc(N=Cc3cc(C(=O)O)ccc3O)cc2)c1 | > 6.48 µM (inactive)
74 | CC(C)[C@H]1NC(=O)[C@H]2CN(C(=O)NC3CCCCC3)CCN2C1=O | > 6.48 µM (inactive)
75 | O=C(/C=C/c1ccco1)NC(=S)Nc1ccc(Cl)c(C(=O)O)c1 | > 6.48 µM (inactive)
76 | CN(C)CCN(C(=O)OCc1ccccc1)c1cc(-c2cn[nH]c2)ccc1NC(=O)OCc1ccccc1 | > 6.48 µM (inactive)
77 | CC(C)NC(=O)c1cccc(NC(=O)Nc2ccc(-c3ncnc4[nH]cc(Cl)c34)cc2)c1 | > 6.48 µM (inactive)
78 | O=C1S/C(=C\c2ccco2)C(=O)N1c1ccccc1Cl | inactive
79 | CCCCCCCCCCCCCCCC(=O)OC[C@H](O)[C@H]1OC(=O)C(=O)C1O (some centres undefined) | > 6.48 µM (inactive)
80 | O=C(O)CSc1cc(Cl)c2nonc2c1[N+](=O)[O-] | 4.2 µM
81 | COCCNC(=O)COC(=O)c1cc(-c2ccco2)nc2ccccc12 | > 6.59 µM (inactive)
82 | COc1ccc(C[C@@H]2NC(=O)[C@H]3CN(C(=O)NCc4ccccc4)CCN3C2=O)cc1 | > 6.48 µM (inactive)
83 | O=C(O)c1cccc2c1C(=O)N(c1ccccc1)C2 | > 6.31 µM (inactive)
84 | Cc1cc(C)nc(NS(=O)(=O)c2ccc(N3C(=O)C=CC3=O)cc2)n1 | > 6.48 µM (inactive)
85 | Cc1ccc(C(=O)N/C(=C/c2ccc([N+](=O)[O-])o2)C(=O)O)cc1 | > 5.88 µM (inactive)
86 | Cc1ccc(-c2ncn(-c3ccc(Nc4cc(-n5cnc(Nc6ccccc6)n5)c(F)cn4)cc3)n2)cn1 | > 6.48 µM (inactive)
87 | CCC12c3ccccc3C(c3ccccc31)C1C(=O)NC(=O)C12 (centres undefined) | > 6.48 µM (inactive)
88 | N#C/C(=C\c1ccc(-c2ccccc2C(=O)O)o1)C(=O)NCc1ccco1 | > 6.48 µM (inactive)
89 | C[C@@H](OCc1ccccc1)[C@@H]1NC(=O)[C@H]2CN(C(=O)NCc3ccccc3)CCN2C1=O | > 6.48 µM (inactive)
90 | O=C1N[C@@H](CC2CCCCC2)C(=O)N2CCN(C(=O)Nc3ccccc3)C[C@H]12 | > 6.48 µM (inactive)
91 | O=C(O)c1cc(S(=O)(=O)Nc2ccc(-n3cnnn3)cc2)ccc1O | > 7.18 µM (inactive)
92 | Cc1nnc(CNC(=O)c2ccc(-n3cccc3)cc2)o1 | > 6.48 µM (inactive)
93 | O=C(/C=C/c1ccco1)NCC(=O)N/N=C/c1ccc(C(=O)O)cc1 | > 6.48 µM (inactive)
94 | Cc1c(NC(=S)NC(=O)/C=C/c2ccco2)cccc1C(=O)O | 3.78 µM
